Values joined by “and” are separate entries in the source; they are usually repeats but may differ in a detail not shown here. Equal values may be shown once.

In this assay the target is Replicase polyprotein 1ab (Severe acute respiratory syndrome coronavirus 2, UniProt P0DTD1). Kind of assay: SARS-CoV-2 Mpro enzyme assay. On the procedure:
The activity of SARS-Cov-2 Mpro was determined in a Fluorescence Resonance Energy Transfer (FRET)-based enzymatic assay using FRET Substrate Dabcyl-KTSAVLQSGFRKM-E(Edans)-Amide. In brief, […] of test compounds (concentrations ranging from […]) was preincubated with […] of 20 nM (final concentration) Mpro enzyme for 30 min at 30 °C in an assay buffer containing 20 mM HEPES, 120 mM NaCI, 0.4 mM EDTA, and 4 mM DTT and 20% glycerol. Reaction was initiated by addition of 10 pL of […] (final concentration) of FRET substrate (Dabcyl-KTSAVLQSGFRKM-E (Edans)-Amide). The reaction was incubated for 1 h and the resulting fluorescent intensity was measured at Ex=360 nm/Em=490 nm at 30 °C using a SPARK 20M plate reader (Tecan). Boceprevir was used a reference standard compound. pICso and pKi were determined using 4PL GraphPad Prism and data were represented as a mean n=2± SD.
Regarding `NC(=O)C(=O)C(C[C@@H]1CCNC1=O)NC(=O)[C@H](CC1CC1)NC(=O)/C=C/c1ccc(Cl)cc1F` (stereo partly specified) [WO2022129953, Example 1], the midpoint of inhibition, the IC50, lay at 0.013 µM.

Turning to `NC(=O)C(=O)C(C[C@@H]1CCNC1=O)NC(=O)[C@H](CC1CC1)NC(=O)/C=C/c1ccccc1` (stereo partly specified) [WO2022129953, Example 2], 0.02 µM corresponded to half-maximal inhibition (IC50). As to `NC(=O)C(=O)C(C[C@@H]1CCNC1=O)NC(=O)[C@H](CC1CC1)NC(=O)OCc1ccccc1` (stereo partly specified) [WO2022129953, Example 3], the IC50 (as a rule, the point on the concentration scale where inhibition reaches its midpoint) was determined as 0.025 µM. Turning to `NC(=O)/C(=N\O)C(C[C@@H]1CCNC1=O)NC(=O)[C@H](CC1CC1)NC(=O)/C=C/c1ccccc1` (stereo partly specified) [WO2022129953, Example 4], the concentration for half-maximal inhibition (IC50) turned out to be 1 µM. Compound `CC(C)(C)NC(=O)C(=O)C(CC1CCNC1=O)NC(=O)[C@H](CC1CC1)NC(=O)/C=C/c1ccc(Cl)cc1F` (stereo partly specified) [WO2022129953, Example 5] had an IC50 of 0.501 µM. The figure for `NC(=O)C(=O)C(CC1CC1)NC(=O)[C@H](CC1CC1)NC(=O)/C=C/c1ccccc1` (stereo partly specified) [WO2022129953, Example 6] is 5.01 µM; for `NC(=O)C(=O)C(CC1CCCC1)NC(=O)[C@H](CC1CC1)NC(=O)/C=C/c1ccccc1` (stereo partly specified) [WO2022129953, Example 7] it is 7.94 µM.

Take `CC(C)(C)C[C@H](NC(=O)/C=C/c1ccc(Cl)cc1Cl)C(=O)NC(C[C@@H]1CCNC1=O)C(=O)C(=O)C#N` (stereo partly specified) [WO2022129953, Example 9]: 0.398 µM corresponded to half-maximal inhibition (IC50). As for `CC(C)(C)C[C@H](NC(=O)/C=C/c1ccc(Cl)cc1Cl)C(=O)NC(C[C@@H]1CCNC1=O)C(=O)C(=O)NC1CC1` (stereo partly specified) [WO2022129953, Example 10], the half-inhibitory concentration (IC50) was found to be 0.00631 µM. The compound `CC(C)(C)C[C@H](NC(=O)/C=C/c1ccc(Cl)cc1F)C(=O)NC(C[C@@H]1CCNC1=O)C(=O)C(=O)NC1CC1` (stereo partly specified) [WO2022129953, Example 11] showed a half-inhibitory concentration (IC50) of 0.00794 µM. The compound `C[C@@H](CC(=O)N[C@@H](CC(C)(C)C)C(=O)NC(C[C@@H]1CCNC1=O)C(=O)C(=O)NC1CC1)c1ccccc1` (stereo partly specified) [WO2022129953, Example 12] gave a concentration for half-maximal inhibition (IC50) of 0.016 µM.

Take `C[C@H](CC(=O)N[C@@H](CC(C)(C)C)C(=O)NC(C[C@@H]1CCNC1=O)C(=O)C(=O)NC1CC1)c1ccccc1` (stereo partly specified) [WO2022129953, Example 13]: half-maximal inhibition (IC50) required 0.016 µM.

`CC[C@@H](CC(=O)N[C@@H](CC(C)(C)C)C(=O)NC(C[C@@H]1CCNC1=O)C(=O)C(=O)NC1CC1)c1ccccc1` (stereo partly specified) [WO2022129953, Example 14] yielded an IC50 of 0.0079 µM. `CC[C@H](CC(=O)N[C@@H](CC(C)(C)C)C(=O)NC(C[C@@H]1CCNC1=O)C(=O)C(=O)NC1CC1)c1ccccc1` (stereo partly specified) [WO2022129953, Example 15]: the IC50 was found to be 0.01 µM. As to `CC(C)(C)C[C@H](NC(=O)C[C@@H](c1ccccc1)C(F)(F)F)C(=O)NC(C[C@@H]1CCNC1=O)C(=O)C(=O)NC1CC1` (stereo partly specified) [WO2022129953, Example 16], 0.02 µM corresponded to half-maximal inhibition (IC50). The compound `CC(C)(C)C[C@H](NC(=O)C[C@H](c1ccccc1)C(F)(F)F)C(=O)NC(C[C@@H]1CCNC1=O)C(=O)C(=O)NC1CC1` (stereo partly specified) [WO2022129953, Example 17] gave an IC50 of 0.013 µM. The compound `CC(C)C[C@H](NC(=O)/C=C/c1ccc(Cl)cc1F)C(=O)NC(C[C@@H]1CCNC1=O)C(=O)C(N)=O` (stereo partly specified) [WO2022129953, Example 18] showed a 50% inhibitory concentration (IC50) of 0.013 µM. Compound `CCNC(=O)C(=O)C(C[C@@H]1CCNC1=O)NC(=O)[C@H](CC1CC1)NC(=O)/C=C/c1ccc(Cl)cc1F` (stereo partly specified) [WO2022129953, Example 19] yielded a half-maximal inhibitory concentration (IC50) of 0.013 µM.

As to `NC(=O)C(=O)C(C[C@@H]1CCNC1=O)NC(=O)[C@H](CC1CC1)NC(=O)/C=C/c1ccc(Cl)cc1Cl` (stereo partly specified) [WO2022129953, Example 20], inhibition was half-maximal at 0.1 µM (IC50).

`O=C(/C=C/c1ccc(Cl)cc1F)N[C@@H](CC1CC1)C(=O)NC(C[C@@H]1CCNC1=O)C(=O)C(=O)NC1CC1` (stereo partly specified) [WO2022129953, Example 21]: the concentration for half-maximal inhibition (IC50) is 0.00794 µM and 0.016 µM. `CC(C)(C)C[C@H](NC(=O)/C=C/c1ccc(Cl)cc1F)C(=O)NC(C[C@@H]1CCNC1=O)C(=O)C(N)=O` (stereo partly specified) [WO2022129953, Example 22] had an IC50 of 0.00631 µM. `CCNC(=O)C(=O)C(C[C@@H]1CCNC1=O)NC(=O)[C@H](CC(C)(C)C)NC(=O)/C=C/c1ccc(Cl)cc1F` (stereo partly specified) [WO2022129953, Example 23] registered a half-maximal inhibitory concentration (IC50) of 0.013 µM.

For `CCNC(=O)C(=O)C(C[C@@H]1CCNC1=O)NC(=O)[C@H](CC1CC1)NC(=O)/C=C/c1ccc(Cl)cc1Cl` (stereo partly specified) [WO2022129953, Example 24], half-maximal inhibition (IC50) was put at 0.013 µM.

As to `O=C(/C=C/c1ccc(Cl)cc1Cl)N[C@@H](CC1CC1)C(=O)NC(C[C@@H]1CCNC1=O)C(=O)C(=O)NC1CC1` (stereo partly specified) [WO2022129953, Example 25], the midpoint of inhibition, the IC50, lay at 0.01 µM. `CCNC(=O)C(=O)C(C[C@@H]1CCNC1=O)NC(=O)[C@H](CC(C)(C)C)NC(=O)/C=C/c1ccc(Cl)cc1Cl` (stereo partly specified) [WO2022129953, Example 26] displayed an IC50 of 0.01 µM. The figure for `CC(C)(C)C[C@H](NC(=O)/C=C/c1ccc(Cl)cc1Cl)C(=O)NC(C[C@@H]1CCNC1=O)C(=O)C(N)=O` (stereo partly specified) [WO2022129953, Example 27] is 0.0079 µM; for `O=C(N[C@@H](CC1CC1)C(=O)NC(C[C@@H]1CCNC1=O)C(=O)C(=O)NC1CC1)OCc1ccccc1` (stereo partly specified) [WO2022129953, Example 29] it is 0.016 µM. In the case of `O=C(CCc1ccc(Cl)cc1Cl)N[C@@H](CC1CC1)C(=O)NC(C[C@@H]1CCNC1=O)C(=O)C(=O)NC1CC1` (stereo partly specified) [WO2022129953, Example 30], the midpoint of inhibition, the IC50, lay at 0.02 µM. Turning to `O=C(/C=C/c1ccc(Cl)cc1F)N[C@@H](CC1CCC1)C(=O)NC(C[C@@H]1CCNC1=O)C(=O)C(=O)NC1CC1` (stereo partly specified) [WO2022129953, Example 31], the midpoint of inhibition, the IC50, lay at 0.025 µM. `CC[C@@H](CC(=O)N[C@@H](CC1CC1)C(=O)NC(C[C@@H]1CCNC1=O)C(=O)C(=O)NC1CC1)c1ccccc1` (stereo partly specified) [WO2022129953, Example 32] registered a half-maximal inhibitory concentration (IC50) of 0.013 µM. Compound `CC[C@H](CC(=O)N[C@@H](CC1CC1)C(=O)NC(C[C@@H]1CCNC1=O)C(=O)C(=O)NC1CC1)c1ccccc1` (stereo partly specified) [WO2022129953, Example 33] gave an IC50 of 0.025 µM.

Values taken from BindingDB's records for patent WO2022129953 (HEPTARES THERAPEUTICS LIMITED, 2022).
